T1: CEACAM1 (Homo sapiens, UniProt P13688)
T1 sequence (P13688 35-526): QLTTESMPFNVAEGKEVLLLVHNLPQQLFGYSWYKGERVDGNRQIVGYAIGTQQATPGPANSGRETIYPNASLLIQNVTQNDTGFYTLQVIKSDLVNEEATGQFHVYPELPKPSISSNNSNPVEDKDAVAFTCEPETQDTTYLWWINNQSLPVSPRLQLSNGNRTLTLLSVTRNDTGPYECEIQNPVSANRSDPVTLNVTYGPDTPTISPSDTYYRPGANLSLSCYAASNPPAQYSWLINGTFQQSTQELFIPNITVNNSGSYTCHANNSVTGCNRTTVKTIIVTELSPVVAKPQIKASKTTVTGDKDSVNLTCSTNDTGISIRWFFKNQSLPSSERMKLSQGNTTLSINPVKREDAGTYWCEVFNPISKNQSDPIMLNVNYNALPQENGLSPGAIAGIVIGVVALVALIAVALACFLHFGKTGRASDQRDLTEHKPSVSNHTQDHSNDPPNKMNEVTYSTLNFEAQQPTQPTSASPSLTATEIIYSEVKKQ


Tests used:
[1] = tested on: B-Raf V600E cell samples (526mel, 624mel); assay: T-cell induced killing of melanoma cells, LDH release; assay type: cell-based, human; conditions: 1 μM, effector-target ratio 5:1, overnight
Protocol: More specifically, whereas only 50% ( 3/6) of the melanoma cells having a wild type B-Raf, i.e. a valine in position 600, expressed detectable levels of CEACAM1 (Ct of 36 and less), 100% (18/18) of the melanoma cells having a mutated B-Raf, i.e. a glutamic acid in position 600, expressed detectable levels of CEACAM1 (Ct of 36 and less). • B. CEACAM1 extracellular staining of cancer cells treated with B-Raf or MEK inhibitors. […] At each time point, CEACAM1 expression on the cells was determined by FACS. Volume equivalents of DMSO (vehicle) were used as control. […] Inhibitor-resistant cancer cells show increase in CEACAM1 expression and restored activity of MAPK pathway. Two vemurafenib-sensitive B-Raf V600E cell samples (526mel, 624mel) and vemurafenib-resistant cell lines derived therefrom were incubated for 2 days with 1 μM vemurafenib. Cells were then analyzed for CEACAM1 protein expression by FACS as described above. […] MAPK activity was measured in vemurafenib-sensitive and vemurafenib-resistant B-Raf V600E (624mel) cell samples by immunoblotting for phosphorylated ERK1/2 (pERK, Thr202/Tyr204), total ERK1/2 and actin after 24 hours of exposure to 160 nM vemurafenib. […] Initial vemurafenib concentration was 0.01 of the determined IC50 (0.64 nM). […] Cell killing was determined by LDH release. […]

[2] = tested on: CEACAM1 expression on sk-mel-2 cells; assay: CEACAM1 extracellular staining by FACS, W.T. B-Raf mutated N-Ras cells; assay type: cell-based, human; conditions: 1 μM
Protocol: Volume equivalents of DMSO (vehicle) were used as control. […] Cells were then analyzed for CEACAM1 protein expression by FACS as described above. Vemurafenib-resistant cell lines were generated by gradual increase of the inhibitor's concentration in culture, up to 0.32 μM. […] Cells were then tested for CEACAM1 expression using MRG1 (murine antibody to human CEACAM1) in flow cytometry as described above. Total RNA was extracted with TRIZOL and cDNA was generated with a reverse transcriptase, according to routine protocols.

CEACAM1 = target: T1, CEACAM1; conditions: WO 2010/125571, WO 2013/054331; cited from earlier work

Molecule	sensitization to cytotoxic T cells [1]	effect on CEACAM1 expression levels [2]	selectivity to CEACAM1 (CEACAM1)
CCCS(=O)(=O)Nc1ccc(F)c(C(=O)c2c[nH]c3ncc(-c4ccc(Cl)cc4)cc23)c1F [vemurafenib]	significantly sensitizes melanoma cells to cytotoxic T cells	no effect	–
CM-10: chimeric anti-CEACAM-1 antibody disclosed in WO 2013/054331 (antibody, V domains shown) VH: QVQLQQSGAELVRPGTSVKVSCKASGYAFTNNLIEWVKQRPGQGLEWIGVINPGSGDTNYNEKFKGKATLTADKSSNTAYMQLSSLTSDDSAVYFCARGDYYGGFAVDYWGQGTSVTVSS VL: DIQMTQTTSSLSASLGDRVTISCRTSQDIGNYLNWYQQKPDGTVKLLIYYTSRLHSGVPSRFSGSGSGTDYSLTISNLEQEDIATYFCQQGKSLPRTFGGGTKLEIK	–	–	highly selective to CEACAM1

Source: patent US11866509B2, “Humanized antibodies against CEACAM1” (Famewave Ltd., priority 2014, dated 2024)
